The text below walks through data of patent US9783505B2, “Substituted diaminopyrimidyl compounds, compositions thereof, and methods of treatment therewith” (Signal Pharmaceuticals, LLC, priority 2013, dated 2017).

Where two headings read alike, the source gives them in different places.

For this experiment, the target named is T1, His-PKC-theta (Homo sapiens, UniProt Q04759).
T1 construct: His; purchased Invitrogen
As to the kind of experiment: PKC-theta Assay (384-well time resolved fluorescence, IMAP TR-FRET). It counts as biochemical. The note with it: read-out: Act. Level (IC50 in the PKC-theta Assay). The procedure: PKC-theta Assay. A 384-well time resolved fluorescence assay was used to monitor PKC-theta activity. The PKC-theta assay was run in the following assay buffer: 50 mM HEPES pH 7.6, 10 mM MgCl2, 1 mM DTT, 0.01% Triton X-100, 0.01% BSA and 0.1 mM EDTA. To initiate the reaction, 200 nM of Fam-labeled S6-derived peptide (Molecular Devices) and 10 μM of ATP were mixed with 142 pM of His-PKC-theta (Invitrogen) for a total assay volume of 25 μL in each well. The assay was incubated at room temperature for 2 hours and terminated using a 60 μL/well mixture of Detection Binding Solution: 70% IMAP Progressive Binding Buffer A, 30% IMAP Progressive Binding Buffer B, 1:600 Progressive Binding Reagent, and 1:400 TR-FRET Tb Donor (Molecular Devices). The assay plates were then incubated overnight at room temperature and read on a Perkin-Elmer Envision Reader.
Background: In TR-FRET formats the signal depends on donor and acceptor labels being close together.

T1 sequence (Q04759 whole entry): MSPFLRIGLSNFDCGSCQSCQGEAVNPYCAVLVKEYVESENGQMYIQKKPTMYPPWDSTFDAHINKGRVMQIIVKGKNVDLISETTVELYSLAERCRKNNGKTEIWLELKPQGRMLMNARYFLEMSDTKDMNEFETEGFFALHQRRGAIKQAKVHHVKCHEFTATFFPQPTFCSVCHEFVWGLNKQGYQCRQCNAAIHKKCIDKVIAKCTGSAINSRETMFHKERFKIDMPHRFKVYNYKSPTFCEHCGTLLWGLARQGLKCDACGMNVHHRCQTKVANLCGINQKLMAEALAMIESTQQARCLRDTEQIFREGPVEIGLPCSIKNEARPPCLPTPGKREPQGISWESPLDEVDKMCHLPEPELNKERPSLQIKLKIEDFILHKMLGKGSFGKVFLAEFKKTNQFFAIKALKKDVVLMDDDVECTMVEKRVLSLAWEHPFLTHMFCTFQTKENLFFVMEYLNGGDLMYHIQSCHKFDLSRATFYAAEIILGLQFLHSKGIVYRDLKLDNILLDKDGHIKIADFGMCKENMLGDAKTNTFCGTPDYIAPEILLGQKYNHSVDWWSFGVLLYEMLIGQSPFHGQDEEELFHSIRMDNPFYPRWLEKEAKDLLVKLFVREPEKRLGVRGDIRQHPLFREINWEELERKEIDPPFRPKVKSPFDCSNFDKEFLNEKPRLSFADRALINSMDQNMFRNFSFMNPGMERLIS

For orientation: IC50 means the concentration needed to halve the response being measured. For the compound `N#Cc1cnc(NCCc2ccc(F)c(Cl)c2)nc1N[C@H]1CC[C@@H](C(N)=O)CC1` [Cmpd 90], the IC50 (Table 2) is less than 100 nM. As for `CC(=O)Nc1ccc(CCNc2ncc(C#N)c(N[C@@H]3CC[C@H](O)C(C)(C)C3)n2)cc1` [Cmpd 130], the IC50 (Table 2) was in the range of 100 to 800 nM. `CC1(C)[C@H](CO)C[C@@H]1Nc1nc(NCCc2cccc(Cl)c2)ncc1C#N` [Cmpd 75]: where the note is “Table 2”, the IC50 fell in the range of 800 to 2000 nM. Same read-out and setting: the figure for `CC1(C)C[C@H](Nc2nc(NCCc3ccc(F)c(Cl)c3)ncc2C#N)CC[C@@H]1O` [Cmpd 88] is less than 100 nM; for `N#Cc1cnc(NCc2ccccc2-n2cccn2)nc1N[C@H]1CC[C@@H](O)CC1` [Cmpd 21] it is 2000 to 10000 nM. For `Cc1ccc2c(CCNc3ncc(C#N)c(N[C@@H]4CC[C@H](O)C(C)(C)C4)n3)c[nH]c2c1` [Cmpd 174], the IC50 is 800 to 2000 nM. Regarding `Cc1nnnn1-c1ccccc1CNc1ncc(C#N)c(NC2CCC(O)C(C)(C)C2)n1` (centres unmarked) [Cmpd 1], the IC50 (Table 2) was less than 100 nM. On to `CC1(C)[C@@H](O)C[C@H]1Nc1nc(NCCc2cccc(Cl)c2)ncc1C#N` [Cmpd 86], for which, under “Table 2”, the IC50 is less than 100 nM.

`CC1(C)[C@H](CO)C[C@H]1Nc1nc(NCc2cnccc2C(F)(F)F)ncc1C(F)(F)F` [Cmpd 66]: the IC50 is less than 100 nM.

Regarding `CC1(C)[C@@H](O)C[C@H]1Nc1nc(NCCc2ccc(-c3ccc(F)cc3)cc2)ncc1C#N` [Cmpd 120], the IC50 (Table 2) fell in the range of 100 to 800 nM.

In the case of `CC1(C)[C@@H](O)C[C@H]1Nc1nc(NCc2cncnc2OCC(F)F)ncc1C(F)(F)F` [Cmpd 7], the IC50 is less than 100 nM.

`CC1(C)C[C@H](Nc2nc(NCCc3n[nH]c4ccccc34)ncc2C#N)CC[C@@H]1O` [Cmpd 176]: the IC50 fell in the range of 800 to 2000 nM. `CC1(C)C[C@H](Nc2nc(NCc3cncnc3-c3ccc(F)cc3)ncc2C(F)(F)F)CC[C@@H]1O` [Cmpd 44]: the IC50 was less than 100 nM. In the case of `CC1(C)C[C@H](O)CC[C@@H]1Nc1nc(NCCc2cccc(Cl)c2)ncc1C#N` [Cmpd 189], the IC50 (Table 2) is 800 to 2000 nM.

`CC1(C)[C@H](CO)C[C@H]1Nc1nc(NCc2cnccc2C(F)(F)F)ncc1C#N` [Cmpd 51]: the IC50 is less than 100 nM. Consider `CC1(C)[C@@H](O)C[C@H]1Nc1nc(NCCCn2ccnc2)ncc1C#N` [Cmpd 188], for which the IC50 lay within 2000 to 10000 nM. Turning to `CC1(C)C[C@H](Nc2nc(NCCc3ccc(C#N)cc3)ncc2C(F)(F)F)CC[C@@H]1O` [Cmpd 161], the IC50 (Table 2) was 100 to 800 nM. Regarding `CC(C)(CO)Nc1nc(NCc2cnccc2C(F)(F)F)ncc1C#N` [Cmpd 15], where the note is “Table 2”, the IC50 was in the range of 100 to 800 nM. As to `C[C@@H]1CC[C@H](Nc2nc(NCc3cnccc3C(F)(F)F)ncc2C(F)(F)F)C[C@H]1O` [Cmpd 63], the IC50 is less than 100 nM. As for `N#Cc1cnc(NCc2ccccc2-c2ccccc2)nc1N[C@H]1CC[C@@H](O)CC1` [Cmpd 10], where the note is “Table 2”, the IC50 lay within 100 to 800 nM. As for `CN(C)S(=O)(=O)c1ccc(CCNc2ncc(C#N)c(N[C@@H]3CC[C@H](O)C(C)(C)C3)n2)cc1` [Cmpd 175], for the setting “Table 2”, the 50% inhibitory concentration (IC50) was 100 to 800 nM. For `CC1(C)C[C@H](Nc2nc(NCCc3ccccc3C#N)ncc2C#N)CC[C@@H]1O` [Cmpd 156], the IC50 (Table 2) was 100 to 800 nM.

Turning to `Cc1cccc2c(CCNc3ncc(C#N)c(N[C@@H]4CC[C@H](O)C(C)(C)C4)n3)c[nH]c12` [Cmpd 172], the half-maximal inhibitory concentration (IC50) fell in the range of 100 to 800 nM. On to `CC1(C)C[C@H](Nc2nc(NCCc3ccc(Cl)cc3Cl)ncc2C#N)CC[C@@H]1O` [Cmpd 100], for which, for the setting “Table 2”, the concentration for half-maximal inhibition (IC50) was 100 to 800 nM.

Turning to `CC1(C)C[C@H](Nc2nc(NCCc3ccccc3OC(F)(F)F)ncc2C#N)CC[C@@H]1O` [Cmpd 55], the IC50 (Table 2) lay within 100 to 800 nM. Regarding `CC1(C)C[C@H](Nc2nc(NCCc3ccc(OCC(F)F)cc3)ncc2C#N)CC[C@@H]1O` [Cmpd 170], under “Table 2”, the IC50 is less than 100 nM. `CC(C)c1ncncc1CNc1ncc(C#N)c(N[C@@H]2C[C@H](O)C2(C)C)n1` [Cmpd 35]: the IC50 was less than 100 nM. As for `CC1(C)C[C@H](Nc2nc(NCCc3c[nH]c4c(F)cccc34)ncc2C#N)CC[C@@H]1O` [Cmpd 182], the IC50 is less than 100 nM. For `CC1(C)[C@H](CO)C[C@@H]1Nc1nc(NCc2c[n+]([O-])ccc2C(F)(F)F)ncc1C(F)(F)F` [Cmpd 141], the IC50 lay in the range of 800 to 2000 nM.

With `CC1(C)C[C@H](Nc2nc(NCCc3ccc(S(N)(=O)=O)cc3)ncc2C#N)CC[C@@H]1O` [Cmpd 65], the half-inhibitory concentration (IC50) (Table 2) was in the range of 100 to 800 nM. Regarding `CC1(C)[C@H](CO)C[C@H]1Nc1nc(NCCc2cccc(Cl)c2)ncc1C#N` [Cmpd 76], under “Table 2”, the IC50 is less than 100 nM.

Regarding `N#Cc1cnc(NCc2cc(F)ccc2C(F)(F)F)nc1N[C@H]1CC[C@@H](O)CC1` [Cmpd 3], the IC50 (Table 2) is less than 100 nM.

For the compound `CC1(C)C[C@H](Nc2nc(NCCc3cccc(F)c3)ncc2C#N)CC[C@@H]1O` [Cmpd 196], the IC50 (Table 2) is less than 100 nM.

Consider `CC1(C)C[C@H](Nc2nc(NCCc3ccc(S(=O)(=O)N4CCCC4)cc3)ncc2C#N)CC[C@@H]1O` [Cmpd 174], for which the IC50 (Table 2) fell in the range of 100 to 800 nM. Turning to `CC1(C)C[C@H](Nc2nc(NCCc3c[nH]c4ccc(Cl)cc34)ncc2C#N)CC[C@@H]1O` [Cmpd 169], the IC50 lay within 100 to 800 nM. Take `CC1(C)[C@@H](O)C[C@H]1Nc1nc(NCc2cncnc2OCCC(F)(F)F)ncc1C#N` [Cmpd 4]: the IC50 was less than 100 nM.

With `CC(C)(F)c1ncncc1CNc1ncc(C#N)c(N[C@@H]2C[C@H](CO)C2(C)C)n1` [Cmpd 15], the concentration for half-maximal inhibition (IC50) was less than 100 nM. As for `Cc1ccc(Oc2ncncc2CNc2ncc(C#N)c(N[C@H]3CC[C@@H](O)CC3)n2)cc1` [Cmpd 26], the IC50 is less than 100 nM.

Turning to `CC1(C)[C@H](O)C[C@H]1Nc1nc(NCc2c[n+]([O-])ccc2C(F)(F)F)ncc1C(F)(F)F` [Cmpd 105], the IC50 fell in the range of 100 to 800 nM. As to `CC1(C)C[C@H](Nc2nc(NCCc3ccc(S(N)(=O)=O)c(Cl)c3)ncc2C#N)CC[C@@H]1O` [Cmpd 186], the IC50 (Table 2) is less than 100 nM. Take `CC1(C)C[C@H](Nc2nc(NCCc3cccc(Cl)c3C(F)(F)F)ncc2C#N)CC[C@@H]1O` [Cmpd 182]: for the setting “Table 2”, the IC50 was 100 to 800 nM. Take `CC1(C)[C@@H](O)C[C@H]1Nc1nc(NCCc2ccncc2)ncc1C#N` [Cmpd 186]: the concentration for half-maximal inhibition (IC50) fell in the range of 800 to 2000 nM.

For `CC1(C)C[C@H](Nc2nc(NCCc3cccc(Cl)c3F)ncc2C#N)CC[C@@H]1O` [Cmpd 87], for the setting “Table 2”, the IC50 is less than 100 nM. With `COc1cc(CCNc2ncc(C#N)c(N[C@@H]3CC[C@H](O)C(C)(C)C3)n2)ccc1C#N` [Cmpd 137], the IC50 (Table 2) fell in the range of 100 to 800 nM. Regarding `CC1(C)[C@@H](Nc2nc(NCCc3cccc(Cl)c3)ncc2C#N)C[C@H]1C(N)=O` [Cmpd 164], the half-maximal inhibitory concentration (IC50) (Table 2) fell in the range of 100 to 800 nM. Still for that read-out and setting: the figure for `N#Cc1cnc(NCCc2cccc(Cl)c2)nc1N[C@H]1C[C@@H](O)C1` [Cmpd 70] is 800 to 2000 nM; for `CC1(C)C[C@H](Nc2nc(NCCc3cc(F)cc(Cl)c3)ncc2C#N)CC[C@@H]1O` [Cmpd 184] it is less than 100 nM; for `CC1(C)C[C@H](Nc2nc(NCCc3ccc(S(=O)(=O)N4CCCCC4)cc3)ncc2C#N)CC[C@@H]1O` [Cmpd 178] it is 100 to 800 nM. On to `CC1(C)[C@@H](O)C[C@H]1Nc1nc(NCC(F)(F)c2ccccc2)ncc1C#N` [Cmpd 43], for which the IC50 (Table 2) was in the range of 100 to 800 nM. For the compound `CC(F)(F)COc1ncncc1CNc1ncc(C#N)c(N[C@@H]2C[C@H](O)C2(C)C)n1` [Cmpd 16], the IC50 was less than 100 nM. `CC1(C)C[C@H](Nc2nc(NCCc3ccc(OC(F)(F)F)cc3)ncc2C#N)CC[C@@H]1O` [Cmpd 53]: for the setting “Table 2”, the IC50 lay within 100 to 800 nM. For `COC1CC(Nc2nc(NCc3cnccc3C(F)(F)F)ncc2C(F)(F)F)C1(C)C` (centres unmarked) [Cmpd 3], the IC50 was less than 100 nM. `COCCOc1ccc(CCNc2ncc(C#N)c(N[C@@H]3CC[C@H](O)C(C)(C)C3)n2)cc1` [Cmpd 62]: the IC50 (Table 2) is 100 to 800 nM. As for `CC(C)(F)c1ncncc1CNc1ncc(C#N)c(N[C@@H]2CC[C@H](O)C(C)(C)C2)n1` [Cmpd 10], the IC50 is less than 100 nM. With `CCc1ccc(CCNc2ncc(C#N)c(N[C@@H]3CC[C@H](O)C(C)(C)C3)n2)cc1` [Cmpd 34], the IC50 (Table 2) lay within 100 to 800 nM. Consider `CC1(C)[C@@H](O)C[C@H]1Nc1nc(NCCc2cccs2)ncc1C#N` [Cmpd 189], for which the 50% inhibitory concentration (IC50) was 100 to 800 nM. In the case of `Cc1[nH]c2c(F)cc(F)cc2c1CCNc1ncc(C#N)c(N[C@H]2CC[C@@H](O)CC2)n1` [Cmpd 149], the IC50 lay in the range of 2000 to 10000 nM. As to `CC1(C)C[C@H](Nc2nc(NCCc3ccc(C#N)c(C(F)(F)F)c3)ncc2C#N)CC[C@@H]1O` [Cmpd 140], the IC50 (Table 2) was in the range of 100 to 800 nM. For the compound `CC1(C)[C@H](O)C[C@@H]1Nc1nc(NCc2cncnc2OCCC(F)(F)F)ncc1C#N` [Cmpd 89], the IC50 is less than 100 nM. Take `CC1(C)[C@H](O)C[C@H]1Nc1nc(NCc2cncnc2-c2ccc(F)cc2)ncc1C#N` [Cmpd 93]: the IC50 was in the range of 100 to 800 nM.

Take `C[C@@H]1CC[C@H](Nc2nc(NCc3cnccc3C(F)(F)F)ncc2C#N)C[C@H]1O` [Cmpd 87]: the IC50 is less than 100 nM. As for `CC1(C)[C@H](O)C[C@@H]1Nc1nc(NCc2cnccc2C(F)(F)F)ncc1C(F)(F)F` [Cmpd 120], the IC50 was 100 to 800 nM. Take `CCOc1ncncc1CNc1ncc(C#N)c(N[C@@H]2C[C@H](O)C2(C)C)n1` [Cmpd 58]: the IC50 was less than 100 nM. For `CC1(C)C[C@H](Nc2nc(NCCc3cccc(-c4ccccc4)c3)ncc2C#N)CC[C@@H]1O` [Cmpd 58], under “Table 2”, the IC50 is 800 to 2000 nM. For the compound `COc1ccccc1CCNc1ncc(C#N)c(N[C@@H]2C[C@H](O)C2(C)C)n1` [Cmpd 85], for the setting “Table 2”, the half-maximal inhibitory concentration (IC50) was 100 to 800 nM. Take `CC1(C)C[C@H](Nc2nc(NCc3cnccc3C(F)(F)F)ncc2C(F)(F)F)CC[C@@H]1O` [Cmpd 18]: the concentration for half-maximal inhibition (IC50) was less than 100 nM. `CC1(C)[C@H](O)C[C@@H]1Nc1nc(NCc2cncnc2OCCC(F)(F)F)ncc1C(F)(F)F` [Cmpd 83]: the 50% inhibitory concentration (IC50) is less than 100 nM. Regarding `Cc1[nH]c2ccc(C#N)cc2c1CCNc1ncc(C#N)c(N[C@H]2CC[C@@H](O)CC2)n1` [Cmpd 148], the IC50 fell in the range of 2000 to 10000 nM.
